Laboratory results: US20260284208A1, “SYSTEM” (Oxford University Innovation Limited, priority 2023, published 2026)

Tested on: library of 8,380 IKZF3 degrons (ZF-eGFP/mCherry reporter) in Jurkat cells
Assay: Pooled library screen (FACS, NGS, limma voom LogFC of positive vs negative read counts)
Type: cell-based, human
Summary of the method: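 Cells were lentivirally transduced at MOI <0.3, and mCherry+ cells were sorted 6 days later. Eight days after sorting, cells were treated with DMSO or thalidomide analog for 18 h at 37 °C. mCherry+GFPlow (DMSO-set gate, DAPI-excluded) and remaining cells were sorted, and degrons were PCR-amplified from gDNA and sequenced (>600× coverage, 3 biological replicates).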

SMILES: O=C1CCC(N2C(=O)c3ccccc3C2=O)C(=O)N1 (centres unmarked) [A32, 2-(2,6-dioxopiperidin-3-yl)isoindoline-1,3-dione]
- A32_logFC (Degron-ID 3102, SEQ ID NO 98, 46F_47Q_49P_50V_52G_53A_54D_55F_67L): 3.4
- A32_logFC (Degron-ID 3105, SEQ ID NO 103, 46F_47Q_49P_50V_52G_53A_54G_55F_67L): 3.381
- A32_logFC (Degron-ID 3106, SEQ ID NO 132, 46F_47Q_49P_50V_52G_53A_54H_55F_67L): 3.266
- A32_logFC (Degron-ID 3107, SEQ ID NO 70, 46F_47Q_49P_50V_52G_53A_54I_55F_67L): 3.527
- A32_logFC (Degron-ID 3108, SEQ ID NO 4, 46F_47Q_49P_50V_52G_53A_54K_55F_67L): 3.962
- A32_logFC (Degron-ID 3109, SEQ ID NO 75, 46F_47Q_49P_50V_52G_53A_54L_55F_67L): 3.497
- A32_logFC (Degron-ID 3110, SEQ ID NO 49, 46F_47Q_49P_50V_52G_53A_54M_55F_67L): 3.582
- A32_logFC (Degron-ID 3111, SEQ ID NO 78, 46F_47Q_49P_50V_52G_53A_54N_55F_67L): 3.484
- A32_logFC (Degron-ID 3112, SEQ ID NO 5, 46F_47Q_49P_50V_52G_53A_54P_55F_67L): 3.872
- A32_logFC (Degron-ID 3116, SEQ ID NO 9, 46F_47Q_49P_50V_52G_53A_54T_55F_67L): 3.794
- A32_logFC (Degron-ID 3132, SEQ ID NO 73, 46F_47R_49D_50I_52G_53A_54P_55F_67L): 3.521
- A32_logFC (Degron-ID 3192, SEQ ID NO 53, 46F_47R_49E_50I_52G_53A_54P_55F_67L): 3.575
- A32_logFC (Degron-ID 3252, SEQ ID NO 104, 46F_47R_49N_50I_52G_53A_54P_55F_67L): 3.38
- A32_logFC (Degron-ID 3312, SEQ ID NO 69, 46F_47R_49P_50I_52G_53A_54P_55F_67L): 3.528
- A32_logFC (Degron-ID 3352, SEQ ID NO 74, 46F_47R_49P_50V_52G_53A_54P_55F_67L): 3.513
- A32_logFC (Degron-ID 3714, SEQ ID NO 136, 46F_47T_49E_50V_52G_53A_54R_55F_67L): 3.256
- A32_logFC (Degron-ID 3799, SEQ ID NO 121, 46F_47T_49P_50I_52G_53A_54Y_55F_67L): 3.31
- A32_logFC (Degron-ID 3821, SEQ ID NO 117, 46F_47T_49P_50V_52G_53A_54C_55F_67L): 3.33
- A32_logFC (Degron-ID 3940, SEQ ID NO 110, 46F_47V_49E_50V_52G_53A_54A_55F_67L): 3.355
- A32_logFC (Degron-ID 3954, SEQ ID NO 139, 46F_47V_49E_50V_52G_53A_54R_55F_67L): 3.254
- A32_logFC (Degron-ID 3955, SEQ ID NO 63, 46F_47V_49E_50V_52G_53A_54S_55F_67L): 3.54
- A32_logFC (Degron-ID 3972, SEQ ID NO 115, 46F_47V_49N_50I_52G_53A_54P_55F_67L): 3.332
- A32_logFC (Degron-ID 4032, SEQ ID NO 77, 46F_47V_49P_50I_52G_53A_54P_55F_67L): 3.493
- A32_logFC (Degron-ID 6496, SEQ ID NO 102, 46L_47C_49P_50I_52G_53F_54T_55C_67L): 3.382
- A32_logFC (Degron-ID 6528, SEQ ID NO 135, 46L_47E_49P_50I_52G_53F_54K_55C_67L): 3.258
- A32_logFC (Degron-ID 6536, SEQ ID NO 101, 46L_47E_49P_50I_52G_53F_54T_55C_67L): 3.382
- A32_logFC (Degron-ID 6539, SEQ ID NO 113, 46L_47E_49P_50I_52G_53F_54Y_55C_67L): 3.343
- A32_logFC (Degron-ID 6700, SEQ ID NO 60, 46L_47Q_49P_50I_52G_53F_54A_55C_67L): 3.551
- A32_logFC (Degron-ID 6703, SEQ ID NO 88, 46L_47Q_49P_50I_52G_53F_54E_55C_67L): 3.442
- A32_logFC (Degron-ID 6706, SEQ ID NO 122, 46L_47Q_49P_50I_52G_53F_54H_55C_67L): 3.305
- A32_logFC (Degron-ID 6707, SEQ ID NO 85, 46L_47Q_49P_50I_52G_53F_54I_55C_67L): 3.453
- A32_logFC (Degron-ID 6708, SEQ ID NO 96, 46L_47Q_49P_50I_52G_53F_54K_55C_67L): 3.401
- A32_logFC (Degron-ID 6710, SEQ ID NO 59, 46L_47Q_49P_50I_52G_53F_54M_55C_67L): 3.553
- A32_logFC (Degron-ID 6713, SEQ ID NO 86, 46L_47Q_49P_50I_52G_53F_54Q_55C_67L): 3.449
- A32_logFC (Degron-ID 6714, SEQ ID NO 111, 46L_47Q_49P_50I_52G_53F_54R_55C_67L): 3.346
- A32_logFC (Degron-ID 6715, SEQ ID NO 66, 46L_47Q_49P_50I_52G_53F_54S_55C_67L): 3.532
- A32_logFC (Degron-ID 6719, SEQ ID NO 81, 46L_47Q_49P_50I_52G_53F_54Y_55C_67L): 3.469
- A32_logFC (Degron-ID 6732, SEQ ID NO 89, 46L_47R_49P_50I_52G_53F_54P_55C_67L): 3.438
- A32_logFC (Degron-ID 6775, SEQ ID NO 76, 46L_47T_49P_50I_52G_53F_54S_55C_67L): 3.495
- A32_logFC (Degron-ID 6776, SEQ ID NO 87, 46L_47T_49P_50I_52G_53F_54T_55C_67L): 3.444
- A32_logFC (Degron-ID 6780, SEQ ID NO 57, 46L_47V_49P_50I_52G_53F_54A_55C_67L): 3.558
- A32_logFC (Degron-ID 6795, SEQ ID NO 48, 46L_47V_49P_50I_52G_53F_54S_55C_67L): 3.587
- A32_logFC (Degron-ID 7840, SEQ ID NO 95, 46L_47Q_49E_50I_52G_53F_54A_55C_67L): 3.402
- A32_logFC (Degron-ID 7848, SEQ ID NO 131, 46L_47Q_49E_50I_52G_53F_54K_55C_67L): 3.267
- A32_logFC (Degron-ID 7853, SEQ ID NO 124, 46L_47Q_49E_50I_52G_53F_54Q_55C_67L): 3.298
- A32_logFC (Degron-ID 7854, SEQ ID NO 52, 46L_47Q_49E_50I_52G_53F_54R_55C_67L): 3.575
- A32_logFC (Degron-ID 7855, SEQ ID NO 51, 46L_47Q_49E_50I_52G_53F_54S_55C_67L): 3.576
- A32_logFC (Degron-ID 7857, SEQ ID NO 99, 46L_47Q_49E_50I_52G_53F_54V_55C_67L): 3.397
- A32_logFC (Degron-ID 7934, SEQ ID NO 128, 46L_47V_49E_50I_52G_53F_54R_55C_67L): 3.277
- A32_logFC (Degron-ID 7935, SEQ ID NO 118, 46L_47V_49E_50I_52G_53F_54S_55C_67L): 3.326
